This passage reports IC50, EC50 and AC50 results from ChEMBL document CHEMBL1201862, “PubChem BioAssay data set” (2004).

SMILES strings stand for the structures. Active and inactive are the calls of the source.

The target in one assay is T1, Caspase-3 (Homo sapiens, UniProt P42574).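 Also: Dose-response selectivity test against caspase-3 for candidate inhibitors of sentrin-specific proteases (SENPs).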
T1 sequence (P42574 whole entry): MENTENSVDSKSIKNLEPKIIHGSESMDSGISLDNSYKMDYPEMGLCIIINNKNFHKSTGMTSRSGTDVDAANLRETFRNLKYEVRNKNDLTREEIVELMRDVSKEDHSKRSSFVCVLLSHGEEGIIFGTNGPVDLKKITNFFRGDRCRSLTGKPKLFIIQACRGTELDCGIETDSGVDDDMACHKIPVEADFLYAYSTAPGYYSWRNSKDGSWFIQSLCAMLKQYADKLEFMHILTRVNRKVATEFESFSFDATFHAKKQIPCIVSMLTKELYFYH
It is filed as functional.

Assay [1] can be described thus: NIH-3T3 fibroblast cytotoxicity, dose response, cytotoxicity control, cell-based, fluorescence, Alamar Blue, secondary assay (AID 2327).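 Also: NIH-3T3 mouse fibroblasts cultured with fluconazole at 8 µg/mL.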 It is filed as functional. Background: Alamar Blue is a resazurin reagent that responds to reducing activity.
Assay [2] deals with T2, Sentrin-specific protease 8 (Homo sapiens, UniProt Q96LD8).
T2 sequence (Q96LD8 whole entry): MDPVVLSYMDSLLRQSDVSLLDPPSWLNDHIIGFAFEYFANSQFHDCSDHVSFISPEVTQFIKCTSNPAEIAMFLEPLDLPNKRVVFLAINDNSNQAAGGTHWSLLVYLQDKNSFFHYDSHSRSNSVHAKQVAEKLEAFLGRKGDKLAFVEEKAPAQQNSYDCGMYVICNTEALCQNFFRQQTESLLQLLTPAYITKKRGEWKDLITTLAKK
The class given is functional.

The target in assay [3] is T3, Sentrin-specific protease 7 (Homo sapiens, UniProt Q9BQF6).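 Also: Luminescence-based dose-response confirmation of ultra-high-throughput screening hits, measuring inhibition of SENP7.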
T3 sequence (Q9BQF6 whole entry): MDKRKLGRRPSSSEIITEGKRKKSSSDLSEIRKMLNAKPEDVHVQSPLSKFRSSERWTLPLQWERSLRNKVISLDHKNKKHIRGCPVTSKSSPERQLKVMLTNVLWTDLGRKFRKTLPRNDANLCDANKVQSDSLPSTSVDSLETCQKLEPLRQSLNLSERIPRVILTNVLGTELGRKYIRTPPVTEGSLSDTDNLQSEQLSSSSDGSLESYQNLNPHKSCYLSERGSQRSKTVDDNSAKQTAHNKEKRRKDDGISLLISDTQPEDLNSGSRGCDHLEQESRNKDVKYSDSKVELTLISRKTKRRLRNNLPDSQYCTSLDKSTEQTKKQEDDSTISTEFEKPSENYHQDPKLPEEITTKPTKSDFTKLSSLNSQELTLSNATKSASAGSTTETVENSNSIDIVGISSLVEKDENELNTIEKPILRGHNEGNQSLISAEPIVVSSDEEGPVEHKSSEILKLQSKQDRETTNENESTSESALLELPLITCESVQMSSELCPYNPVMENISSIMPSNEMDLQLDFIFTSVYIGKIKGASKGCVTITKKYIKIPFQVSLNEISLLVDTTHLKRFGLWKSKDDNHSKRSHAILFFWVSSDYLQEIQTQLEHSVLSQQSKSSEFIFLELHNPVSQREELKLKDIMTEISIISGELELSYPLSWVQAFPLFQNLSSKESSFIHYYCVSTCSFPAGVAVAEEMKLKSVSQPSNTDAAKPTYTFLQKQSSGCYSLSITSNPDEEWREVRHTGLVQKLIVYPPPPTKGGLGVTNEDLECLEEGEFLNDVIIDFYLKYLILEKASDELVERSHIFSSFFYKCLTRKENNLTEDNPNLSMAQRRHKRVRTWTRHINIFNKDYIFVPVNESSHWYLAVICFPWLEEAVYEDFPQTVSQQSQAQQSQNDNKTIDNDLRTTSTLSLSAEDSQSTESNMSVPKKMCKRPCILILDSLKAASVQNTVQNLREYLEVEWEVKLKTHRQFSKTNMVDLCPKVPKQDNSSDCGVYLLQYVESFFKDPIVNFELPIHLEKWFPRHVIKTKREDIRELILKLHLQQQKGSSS
The class given is functional.

For assay [4], the target named is T4, Sentrin-specific protease 6 (Homo sapiens, UniProt Q9GZR1).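 Also: Luminescence-based dose-response confirmatory assay of SENP6 inhibition, following up an ultra-high-throughput screen.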
T4 sequence (Q9GZR1 whole entry): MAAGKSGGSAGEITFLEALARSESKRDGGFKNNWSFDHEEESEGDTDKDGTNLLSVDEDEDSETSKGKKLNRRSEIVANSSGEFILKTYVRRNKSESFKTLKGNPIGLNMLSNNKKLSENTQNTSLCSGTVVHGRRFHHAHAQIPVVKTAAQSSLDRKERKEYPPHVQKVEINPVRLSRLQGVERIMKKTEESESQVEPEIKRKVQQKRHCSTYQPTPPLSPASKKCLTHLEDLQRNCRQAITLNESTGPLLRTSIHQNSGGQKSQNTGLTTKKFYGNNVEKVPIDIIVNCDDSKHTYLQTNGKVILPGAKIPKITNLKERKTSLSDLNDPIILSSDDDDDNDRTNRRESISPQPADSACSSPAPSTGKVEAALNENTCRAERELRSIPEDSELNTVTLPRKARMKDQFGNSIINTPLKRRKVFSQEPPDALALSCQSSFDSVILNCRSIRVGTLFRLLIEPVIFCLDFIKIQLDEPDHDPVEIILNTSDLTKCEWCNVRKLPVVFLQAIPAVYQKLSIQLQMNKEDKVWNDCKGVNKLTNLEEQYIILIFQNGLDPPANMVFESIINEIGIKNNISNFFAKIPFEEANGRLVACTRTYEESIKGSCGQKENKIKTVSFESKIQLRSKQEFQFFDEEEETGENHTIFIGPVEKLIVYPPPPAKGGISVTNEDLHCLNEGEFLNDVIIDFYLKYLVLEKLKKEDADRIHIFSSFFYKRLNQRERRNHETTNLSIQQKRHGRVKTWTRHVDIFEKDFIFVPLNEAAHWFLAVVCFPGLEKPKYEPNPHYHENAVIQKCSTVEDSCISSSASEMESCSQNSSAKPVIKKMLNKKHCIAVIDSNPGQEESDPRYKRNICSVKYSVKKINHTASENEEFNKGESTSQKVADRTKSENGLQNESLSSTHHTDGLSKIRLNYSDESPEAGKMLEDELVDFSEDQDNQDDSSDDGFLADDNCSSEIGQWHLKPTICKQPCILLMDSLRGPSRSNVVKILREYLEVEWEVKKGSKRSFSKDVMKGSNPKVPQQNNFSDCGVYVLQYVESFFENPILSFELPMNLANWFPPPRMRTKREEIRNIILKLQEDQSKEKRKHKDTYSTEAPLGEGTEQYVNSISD
It is filed as functional.

For a further assay, the target named is T5, Protein skinhead-1 (Caenorhabditis elegans, UniProt P34707).
T5 sequence (P34707 whole entry): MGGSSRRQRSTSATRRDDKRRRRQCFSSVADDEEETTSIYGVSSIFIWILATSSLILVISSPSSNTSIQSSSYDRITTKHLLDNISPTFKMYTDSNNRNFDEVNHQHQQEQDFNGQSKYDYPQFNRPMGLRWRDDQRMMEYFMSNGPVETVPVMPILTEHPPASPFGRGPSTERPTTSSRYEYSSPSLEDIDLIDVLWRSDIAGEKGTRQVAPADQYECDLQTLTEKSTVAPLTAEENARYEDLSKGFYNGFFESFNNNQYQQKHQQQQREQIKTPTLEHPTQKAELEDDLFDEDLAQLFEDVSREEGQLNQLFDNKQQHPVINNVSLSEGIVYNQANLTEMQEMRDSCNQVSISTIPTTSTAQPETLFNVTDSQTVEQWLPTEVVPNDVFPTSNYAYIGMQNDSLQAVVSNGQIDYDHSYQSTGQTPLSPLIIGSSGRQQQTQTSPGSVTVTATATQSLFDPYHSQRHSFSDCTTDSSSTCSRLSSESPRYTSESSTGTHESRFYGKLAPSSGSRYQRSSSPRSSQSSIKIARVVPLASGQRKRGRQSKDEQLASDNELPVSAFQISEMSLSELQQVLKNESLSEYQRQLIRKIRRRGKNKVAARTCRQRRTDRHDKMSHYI
The class given is functional.

Assay [5] deals with T6, Polyadenylate-binding protein 1 (Homo sapiens, UniProt P11940). The assay is described as follows: PABP1 MLLE–PAM2 binding inhibitor potency, dose response, biochemical, fluorescence polarization, FITC-PAM2 peptide (AID 602259). The class given is functional. Particulars: read-out: IC50_Mean. (In fluorescence polarisation assays a small probe gives low polarisation when free and higher when bound to something large.)
T6 sequence (P11940 whole entry): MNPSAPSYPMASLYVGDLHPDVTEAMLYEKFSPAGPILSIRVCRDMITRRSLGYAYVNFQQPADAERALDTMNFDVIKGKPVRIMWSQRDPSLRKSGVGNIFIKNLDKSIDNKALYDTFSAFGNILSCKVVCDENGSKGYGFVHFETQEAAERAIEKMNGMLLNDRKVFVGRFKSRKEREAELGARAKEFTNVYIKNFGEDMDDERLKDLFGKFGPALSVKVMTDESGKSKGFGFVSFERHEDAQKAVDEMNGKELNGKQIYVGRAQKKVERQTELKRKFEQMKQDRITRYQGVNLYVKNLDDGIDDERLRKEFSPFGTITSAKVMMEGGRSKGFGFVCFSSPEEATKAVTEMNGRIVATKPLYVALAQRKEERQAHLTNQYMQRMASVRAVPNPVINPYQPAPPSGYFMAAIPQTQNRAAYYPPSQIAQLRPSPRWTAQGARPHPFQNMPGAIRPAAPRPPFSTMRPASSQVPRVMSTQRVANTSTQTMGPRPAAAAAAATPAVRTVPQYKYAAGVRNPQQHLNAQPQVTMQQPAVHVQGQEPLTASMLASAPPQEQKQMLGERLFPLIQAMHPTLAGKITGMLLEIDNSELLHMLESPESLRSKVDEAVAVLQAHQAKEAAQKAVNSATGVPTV

For assay [6], the target named is T6, Polyadenylate-binding protein 1. Description: PABP1 MLLE–PAM2 interaction inhibitors, dose response, miRNA deadenylation inhibitor project, biochemical, fluorescence polarization, Cy5-PAM2 peptide, secondary (AID 602260). The class given is functional. Particulars: read-out: IC50_Mean.
The next assay deals with H4. The assay is described as follows: Luminescence Cell-Based Dose Response HTS to Identify Activators of 5'UTR Stem-Loop Driven Prion Protein mRNA Translation in H4 Neuroglioblastoma Cells. [Related pubchem assays: 1829 (Project Summary), 1814 (Primary HTS)]. Particulars: Homo sapiens. The class given is functional.
Assay [7] can be described thus: Luminescence Cell-Based Dose Confirmation HTS to Identify Activators of 5'UTR Stem-Loop Driven Alpha-Synuclein mRNA Translation in H4 Neuroglioblastoma Cells. [Related pubchem assays: 1829 (Project Summary), 1814 (Primary HTS)]. It is filed as functional.
Assay [8] is described as follows: Luminescence Cell-Based Dose Response HTS to Identify Activators of Luciferase Translation or Activity in H4 […] Cells. [Related pubchem assays: 1829 (Project Summary), 1814 (Primary HTS)]. It is filed as functional.
A further assay deals with Streptococcus. The assay is described as follows: Group A Streptococcus viability loss, dose response, counter-screen for streptokinase expression inhibitor project, luminescence, BacTiterGlo (AID 1915).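 Also: potency for reduction of bacterial viability or growth.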 The class given is functional, organism-based. A general note: A counterscreen serves to expose hits that act by an unwanted route or on another target.
In another assay the target is Cytochrome P450 3A4 (Homo sapiens, UniProt P08684).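 Also: CYP3A4 tested as one member of a cytochrome P450 panel screen.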
Chain of Cytochrome P450 3A4 (P08684 whole entry): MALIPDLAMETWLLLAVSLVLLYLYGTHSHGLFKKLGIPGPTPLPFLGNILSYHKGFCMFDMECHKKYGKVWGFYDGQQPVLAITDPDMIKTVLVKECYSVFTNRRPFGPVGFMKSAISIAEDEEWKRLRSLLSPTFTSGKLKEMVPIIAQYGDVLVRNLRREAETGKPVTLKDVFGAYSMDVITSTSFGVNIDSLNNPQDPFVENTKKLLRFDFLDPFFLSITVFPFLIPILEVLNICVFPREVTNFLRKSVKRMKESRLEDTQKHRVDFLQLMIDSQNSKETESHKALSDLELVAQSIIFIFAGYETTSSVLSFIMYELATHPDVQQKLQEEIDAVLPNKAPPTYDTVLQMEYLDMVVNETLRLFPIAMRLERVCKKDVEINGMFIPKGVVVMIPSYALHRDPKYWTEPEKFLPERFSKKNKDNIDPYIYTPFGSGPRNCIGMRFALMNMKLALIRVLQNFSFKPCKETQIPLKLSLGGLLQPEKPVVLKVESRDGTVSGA
For another assay, the target named is T7, Streptokinase A (Streptococcus pyogenes serotype M1, UniProt P10520).
T7 sequence (P10520 whole entry): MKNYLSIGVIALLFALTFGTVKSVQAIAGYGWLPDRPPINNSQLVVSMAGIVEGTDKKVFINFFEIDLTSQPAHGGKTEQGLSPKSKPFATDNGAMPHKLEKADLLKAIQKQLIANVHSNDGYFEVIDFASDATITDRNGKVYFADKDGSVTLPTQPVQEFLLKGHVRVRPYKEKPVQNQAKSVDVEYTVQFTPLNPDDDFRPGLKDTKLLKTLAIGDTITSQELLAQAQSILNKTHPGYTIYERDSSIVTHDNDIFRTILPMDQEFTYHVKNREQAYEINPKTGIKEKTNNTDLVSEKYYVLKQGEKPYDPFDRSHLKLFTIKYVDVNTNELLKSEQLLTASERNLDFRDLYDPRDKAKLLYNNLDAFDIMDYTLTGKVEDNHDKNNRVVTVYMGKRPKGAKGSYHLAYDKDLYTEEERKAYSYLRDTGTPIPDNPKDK
The assay is described as follows: S. pyogenes streptokinase expression inhibitors, potency, dose response, plasminogen activation absorbance, OD405 (AID 1914).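 Also: secreted streptokinase activity via plasminogen activation per viability signal from cell pellet.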 It is filed as functional, Streptococcus pyogenes M1 GAS.

Assay [9] has as its system Streptococcus sp. 'group A'. The assay is described as follows: growth inhibition of control SK(-) GAS strain, dose response, counter-screen for streptokinase expression inhibitor project, luminescence, kanamycin, BacTiterGlo, confirmation (AID 1900). The class given is functional, organism-based.
In the next assay the target is Cytochrome P450 2D6 (Homo sapiens, UniProt P10635).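 Also: CYP2D6 member of a cytochrome P450 panel assay.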
Chain of Cytochrome P450 2D6 (P10635 whole entry): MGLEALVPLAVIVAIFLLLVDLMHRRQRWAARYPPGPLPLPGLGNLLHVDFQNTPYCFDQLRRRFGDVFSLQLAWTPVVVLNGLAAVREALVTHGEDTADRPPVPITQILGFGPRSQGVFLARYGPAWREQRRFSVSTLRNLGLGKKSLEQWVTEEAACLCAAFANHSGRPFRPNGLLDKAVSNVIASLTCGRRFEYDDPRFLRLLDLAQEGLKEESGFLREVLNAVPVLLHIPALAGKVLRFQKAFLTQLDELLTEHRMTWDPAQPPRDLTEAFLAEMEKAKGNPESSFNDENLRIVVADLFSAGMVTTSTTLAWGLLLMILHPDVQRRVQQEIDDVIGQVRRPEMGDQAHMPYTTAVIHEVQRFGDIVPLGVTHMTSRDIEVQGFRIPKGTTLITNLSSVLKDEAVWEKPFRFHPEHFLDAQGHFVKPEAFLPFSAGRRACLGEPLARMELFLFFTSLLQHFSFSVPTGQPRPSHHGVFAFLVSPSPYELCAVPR

For the molecule `O=C(Nc1nc(=O)c2ccccc2s1)c1ccccc1`, the IC50 on Caspase-3 was 4.38 µM (active); in [2], > 100 µM (inactive); in assay [3], 6.3 µM (active); in [4], 60.6 µM (active). Also, the half-maximal effective concentration (EC50) in assay [1] is 63.1 µM (active).

For `c1ccc2nc(-c3ccc(-n4ccnc4)cc3)ccc2c1`, the IC50 is 8.83 µM (active) at Caspase-3; 13.1 µM (active) in assay [2]; 7.87 µM (active) on Protein skinhead-1; 5.47 µM (active) in assay [3]; 10.8 µM (active) in [4].

In the case of `CCN(CC)S(=O)(=O)c1ccc2c(c1)nc(SCn1nnc3ccccc3c1=O)n2CC`, the IC50 in assay [5] and in [6] was > 66 µM (inactive) each time.

With `Cc1nc(NC(=S)NC(=O)c2ccccc2)sc1C(=O)N(C)C`, the IC50 in assay [5] and in assay [6] was > 66 µM (inactive) throughout.

As to `O=C(NN=Cc1sc(=O)[n-]c1-[n+]1ccccc1)c1ccccc1O`, the IC50 was 35.2 µM (inactive) in assay [5] and > 66 µM (inactive) in [6].

With `COc1cccc(C(=O)OCC(=O)c2ccc(Br)s2)c1`, the IC50 at Caspase-3 was 26.8 µM (active); in assay [2] it was 21.6 µM (active); in assay [3], 10.3 µM (active); in assay [4], 14.6 µM (active).

Turning to `CCSc1nsc(NC(=O)Nc2ccccc2F)n1`, the IC50 at Caspase-3 was 29 µM (active); in assay [2], 6.84 µM (active); in assay [3] it was 5.95 µM (active); in assay [4] it was > 100 µM (inactive). The EC50 in the assay on H4 is 16.1 µM (inconclusive); in assay [7] it was 0.283 µM (active); in assay [8] it was 20.4 µM (active).

With `N=C1/C(=C/c2cccs2)C(=O)N=C2SN=C(SCc3ccccc3)N12`, the EC50 in the assay on Streptococcus is 30 µM (active); on Streptokinase A it was 5.78 µM (active); in assay [9] it was 3.65 µM (active). The IC50 on Caspase-3 is 50.3 µM (active); in assay [2] it was 32.6 µM (active); in [3], 27.7 µM (active); in [4], 11.1 µM (active). Also, the AC50 is 14.1 µM (inconclusive) at Cytochrome P450 3A4 and 25.1 µM (inconclusive) on Cytochrome P450 2D6.

As to `O=C(Nc1ccc(Cl)cc1)Nc1nccs1`, the IC50 at Caspase-3 was 21.7 µM (active); in assay [2] it was 15.5 µM (active); in assay [3] it was 7.33 µM (active); in assay [4], 14.6 µM (active). Moreover, the AC50 on Cytochrome P450 2D6 was 31.6 µM (inconclusive).

As to `CCCc1nc2ccc(Cl)cn2c1Cc1ccsc1`, the IC50 is 59.3 µM (inactive) in assay [5] and 51.2 µM (inactive) in assay [6].

In the case of `Nc1[nH]n(-c2ccccc2)c(=O)c1N=Nc1ccccc1`, the IC50 at Caspase-3 is 20.2 µM (active); in [2], > 100 µM (inactive); in [3], 4.47 µM (active); in assay [4], > 100 µM (inactive).

As a reminder, the EC50 is the midpoint of the concentration-response curve. In general, AC50 refers to the concentration giving half of the maximal activity seen.
